Results reported in patent US6060505A (priority 1999, dated 2000).
Where two headings read alike, the source gives them in different places.

Key:
[1] = tested on: B16/F10 melanoma cell line; assay: [3H]thymidine incorporation assay in melanoma cells (one day treatment); assay type: cell-based; settings: for IC50: read-out: ED50, inhibition of [3H]thymidine incorporation
Description: FIG. 2A depicts the percentage of incorporation of [^3 H]thymidine relative to a control sample (y-axis) plotted as a function of the concentration (nM) of bryostatin 1 (squares) or 26-epibryostatin 1 (circles)
(§1) The unmodified and C-26 modified bryostatins were used in [^3 H]thymidine incorporation and cell proliferation assays. The phorbol ester PMA, a ligand for protein kinase C was also used in this example to provide a separate control sample. The selection of PMA as a control sample is particularly appealing since bryostatins antagonize a subset of the actions of PMA. [^3 H]Thymidine incorporation is a measure of DNA synthesis, which is often used as a marker of cell replication. Chronic cell growth assays are an alternative measure of cell growth, usually performed over longer periods of time.
(§2) For [^3 H]-thymidine incorporation assays, melanoma cells growing in log phase at a density of 40-50% confluency were treated for one day with the indicated compound.

[2] = tested on: B16-F10 melanoma cell line; assay: chronic cell growth (cell proliferation) assay, 4 days; assay type: cell-based; settings: for IC50: read-out: ED50, dose required to reduce cell growth by 50%, 5760 min
Description: FIG. 2B depicts the results of a chronic cell growth assay wherein the number of cells expressed as a percentage of a control sample (y-axis) are plotted as a function of the concentration (nM) of bryostatin 1 (squares), 26-epibryostatin 1 (circles), or PMA (triangles).
as §1
For the cell proliferation assays, the B16-F10 melanoma cell line with high pulmonary metastatic potency (from the laboratory of Dr. I. J. Fidler, Frederick Cancer Research and Development Center, Frederick, Md.) were plated at a density of 10^3 cells/well in Costar 12-well tissue culture plates. The cells were then treated with different concentrations of bryostatin 1, 26-epi-bryostatin 1, or PMA in 0.1% DMSO 1 and 3 days after plating. Total cell number was determined 4 days after plating.

protein kinase C [3] = settings: cited from earlier work
[4] = tested on: [3H]thymidine incorporation; assay: [3H]thymidine incorporation with or without bisindolyl-maleimide I; assay type: cell-based; settings: for [3H]thymidine incorporation expressed as percent of control: bryostatin 1 or epi-bryostatin 1 3 uM
Protocol: as §2
(§3) Bisindolyl-maleimide I was used to inhibit both PMA and bryostatin 1 induced protein kinase C activity and bryostatin 1 induced inhibition of [^3 H]thymidine incorporation.
The effect of bisindolyl-maleimide I cotreatment on induction of protein kinase C activity and [^3 H]thymidine incorporation in response to PMA or bryostatin 1.

C57BL/6 mice = assay: in vivo toxicity in C57BL/6 mice, 7 days observation
Protocol: C57BL/6 mice were injected with either 500 ug/kg or 1500 ug/kg 26-epi-bryostatin 1 or 150 ug/kg or 500 ug/kg bryostatin 1.

[5] = tested on: B16/F10 melanoma cell line; assay: cells; assay type: cell-based; settings: for cytostatic / cytotoxic effect: 3 uM
Protocol: The effect of bryostatin 1 and phorbol 12-myristate 13-acetate (PMA) on the proliferation of the B16/F10 melanoma cell line was first determined. Bryostatin 1 inhibited [^3 H]thymidine incorporation with an ED50 of 600±80 nM (n=3) and with a maximum inhibition of 60% (FIG. 2A). […] The effect on cell growth of chronic treatment with bryostatin 1 or PMA was also determined. […] In contrast to bryostatin 1, PMA increased the cell growth by 75±10% (n=3) at a dose of 10 nM; the dose response curve was biphasic, with smaller effects at higher and lower applied doses (FIG. 2B).
During the 4-day treatment schedule, the number of cells in the control group increased 80 to 100-fold.

protein kinase C [6] = settings: cited from earlier work; remark: listed apart in the source
protein kinase C [7] = assay type: cell-based; settings: for fold increase of protein kinase C activity: PMA 10 nM, bryostatin 1 3 uM, 10 min
Protocol: as §3
Protein kinase C activity was assayed in cell lysates by measuring the incorporation of ^32 P from [γ-^32 P]ATP into acetylated myelin basic protein peptide (4-14) (Ac-MBP(4-14)) by methods known in the art (Nakadate et al., Biochem. Pharmacol., 37, 1541-1545 (1988)). The cells were treated at 60-75% confluency with bryostatin 1, 26-epi-bryostatin 1 and/or bisindolyl-maleimide I for 10 min. The cells were lysed by sonication in 20 mM Tris-HCl, pH 7.4, containing 5 mM EGTA and 20 uM leupeptin. 5 ul of cell lysate was added to 15 ul kinase buffer (20 mM HEPES, pH 7.5, 10 mM MgCl2, 0.5 mM CaCl2, 1 mM 4-(2-aminoethyl)benzenesulfonyl fluoride, 20 uM leupeptin, and 10 ug/ml aprotinin) containing 50 uM substrate, and 2 uCi [γ-^32 P]ATP at a concentration 50 uM ATP. The kinase reaction was incubated for 10 minutes at 30 ° C. The incorporated radioactivity was measured with a Pharmacia Biotech 1218 liquid scintillation counter.

mice = settings: cited from earlier work
[8] = tested on: lymphoma, renal cancer, melanoma, leukemia, and ovarian cancer; settings: cited from earlier work
humans = settings: three infusions of 2 μg/kg; cited from earlier work
[9] = with BIM-I (1 uM), PMA 10 nM, 1440 min
[10] = without BIM-I, PMA 10 nM, 1440 min

In the case of `CCCC=CC=CC(=O)OC1C(=CC(=O)OC)CC2CC(C(C)O)OC(=O)CC(O)CC3CC(OC(C)=O)C(C)(C)C(O)(CC4CC(=CC(=O)OC)CC(C=CC(C)(C)C1(O)O2)O4)O3` (stereo not drawn) [26-epi-bryostatin 1], the “maximum inhibition of [3H]thymidine incorporation” value ([1]; B16/F10 melanoma, highest dose tested 3 uM) is reported as 80±5%, the “inhibitory potency relative to bryostatin 1, [3H]thymidine incorporation” value ([1]; compared with bryostatin 1) is reported as “inhibitory potency similar to that of bryostatin 1” and the “maximum extent of inhibition relative to bryostatin 1, [3H]thymidine incorporation” value ([1]; compared with bryostatin 1) is reported as “greater than for bryostatin 1”. For the same molecule, the IC50 ([1]; B16/F10 melanoma, one day, 1440 min) was 0.6 ± 0.12 µM, the growth arrest ([2]; 3 uM, 4 days) was “almost complete growth arrest” and the “inhibition of cell growth (maximal, highest dose tested)” value ([2]; 4 days, 3 uM) was 97±3%. The “maximum extent of inhibition relative to bryostatin 1, cell growth” value ([2]; compared with bryostatin 1) was “greater than for bryostatin 1”, the “reduction in potency relative to bryostatin 1, chronic cell growth assay” value ([2]; compared with bryostatin 1) was 3 fold and the IC50 ([2]; chronic treatment, 4 days) was 0.14 ± 0.03 µM. The “affinity for protein kinase C of 26-epi-bryostatin 1” value (protein kinase C [3]; compared with bryostatin 1) was “significantly reduced affinity”, the “[3H]thymidine incorporation expressed as percent of control” value [4, 9] was 20 ± 5% of control and the “[3H]thymidine incorporation expressed as percent of control” value [4, 10] was 21 ± 3% of control. For the same molecule, the toxicity (C57BL/6 mice; 500 ug/kg injected) was “only relatively minor toxic effects”, the toxicity (C57BL/6 mice; 1500 ug/kg injected) was “only relatively minor toxic effects” and the “therapeutic index relative to bryostatin 1” value (C57BL/6 mice; compared with bryostatin 1) was “higher therapeutic index”. For the same molecule, the “toxicity relative to bryostatin 1” value (C57BL/6 mice; compared with bryostatin 1) was “significantly less toxic than bryostatin 1”, the “cytostatic / cytotoxic effect” value [5] was “powerful cytostatic agent with no cytotoxic effect” and the “cell death (trypan blue exclusion)” value ([5]; after treatment in the cell growth assay, 5760 min, 3 µM) was “less than 1%”.
With `CN(C)CCCn1cc(C2=C(c3c[nH]c4ccccc34)C(=O)NC2=O)c2ccccc21` [BIM-I, bisindolyl-maleimide I] the “effect on PMA-induced increase in [3H]thymidine incorporation” value ([4]; BIM-I 1 uM, PMA 10 nM) was “inhibited the modest PMA-induced increase”, the “effect on bryostatin induced decrease in thymidine incorporation” value ([4]; BIM-I 1 uM, bryostatin 1 3 uM) was “slightly enhanced” and the “effect on inhibition of thymidine incorporation by bryostatin 1” value ([4]; BIM-I 1 uM, bryostatin 1 3 uM) was “did not block”. The “[3H]thymidine incorporation expressed as percent of control” value ([4]; with BIM-I (1 uM), PMA 10 nM) was 91 ± 2% of control, the “protein kinase C inhibition” value (protein kinase C [6]) was “powerful and specific protein kinase C inhibitor” and the “inhibition of PMA or bryostatin 1 induced protein kinase C enzymatic activity” value (protein kinase C [7]; BIM-I 1 uM, PMA 10 nM or bryostatin 1 3 uM) was “completely inhibited”.
In the case of `CCC/C=C/C=C/C(=O)O[C@H]1/C(=C/C(=O)OC)C[C@H]2C[C@H]([C@@H](C)OC(C)=O)OC(=O)C[C@H](O)C[C@@H]3C[C@H](OC(C)=O)C(C)(C)[C@](O)(C[C@@H]4C/C(=C/C(=O)OC)C[C@H](/C=C/C(C)(C)[C@]1(O)O2)O4)O3` [C-26 acetate ester of bryostatin], the “binding activity / affinity for protein kinase C” value (protein kinase C [3]) is given as “decreased binding activity”.
In the case of `CCCC(=O)O[C@H]1/C(=C/C(=O)OC)C[C@H]2C[C@H]([C@H](C)O)OC(=O)C[C@H](O)C[C@@H]3C[C@H](OC(=O)C(C)(C)C)C(C)(C)[C@](O)(C[C@@H]4C/C(=C/C(=O)OC)C[C@H](/C=C/C(C)(C)[C@]1(O)O2)O4)O3` [C-26 epimer of bryostatin 4], the “binding activity / affinity for protein kinase C” value (protein kinase C [3]) is listed as “decreased binding activity”.
For `CCCCCCCCCCCCCC(=O)O[C@@H]1[C@@H](C)[C@@]2(O)[C@@H](C=C(CO)C[C@]3(O)C(=O)C(C)=C[C@@H]23)[C@@H]2C(C)(C)[C@]12OC(C)=O` [PMA, phorbol 12-myristate 13-acetate], the activity at 0.01 µM ([1]; Mus musculus, B16-F10, 24 h, 10 nM, read-out: [3H]thymidine incorporation (slight increase)) was 120 ± 20%, the “effect on [3H]thymidine incorporation” value ([1]; dose range between 0.1 nM to 3 uM) was “no significant effect” and the activation at 0.01 µM ([2]; Mus musculus, B16-F10, 96 h, 10 nM, chronic treatment, read-out: increase in cell growth) was 75 ± 10%. For the same molecule, the “dose response curve of cell growth” value ([2]; smaller effects at higher and lower applied doses than 10 nM) was “biphasic”, the “[3H]thymidine incorporation expressed as percent of control” value ([4]; with BIM-I (1 uM), PMA 10 nM) was 98 ± 11% of control and the “[3H]thymidine incorporation expressed as percent of control” value ([4]; without BIM-I, PMA 10 nM) was 120 ± 22% of control. The “fold increase of protein kinase C activity” value (from here on “fold increase”) (protein kinase C [7]; with BIM-I (1 uM)) was 1.08 ± 0.1 fold and the “fold increase” value (protein kinase C [7]; without BIM-I) was 4.4 ± 0.1 fold.
In the case of `CCCC=CC=CC(=O)OC1C(=CC(=O)OC)CC2CC(C(C)O)OC(=O)CC(O)CC3CC(OC(C)=O)C(C)(C)C(O)(CC4CC(=CC(=O)OC)CC(C=CC(C)(C)C1(O)O2)O4)O3` (centres unmarked) [bryostatin 1], the inhibition at 3 µM ([1]; Mus musculus, B16-F10, 3 h, read-out: maximum inhibition of [3H]thymidine incorporation, B16/F10 melanoma, highest dose tested 3 uM) is reported as 60%, the IC50 ([1]; Mus musculus, B16-F10, 24 h) is reported as 0.6 ± 0.08 µM and the “inhibition of cell growth (maximal, highest dose tested)” value ([2]; 4 days, 3 uM) is reported as 75±5%. For the same molecule, the IC50 ([2]; chronic treatment, 4 days) was 0.05 ± 0.015 µM, the lethal dose (mice) was “greater than 200 μg/kg” and the antineoplastic effectiveness [8] was “directly shown to be effective”. For the same molecule, the “inhibition of [3H]thymidine incorporation of bryostatin 1 plus bisindolyl-maleimide I relative to 26-epi-bryostatin 1 alone” value ([4]; combination with BIM-I) was “same level of inhibition”, the “[3H]thymidine incorporation expressed as percent of control” value [4, 9] was 25 ± 5% of control and the “[3H]thymidine incorporation expressed as percent of control” value [4, 10] was 43 ± 2% of control. For the same molecule, the toxicity (C57BL/6 mice; 150 ug/kg injected) was “only relatively minor toxic effects”, the “toxicity, lethality” value (C57BL/6 mice; 500 ug/kg bryostatin 1 injected) was “lethal for all animals tested by the third day after injection” and the “cytostatic / cytotoxic effect” value [5] was “arrested growth rather than killed cells”. For the same molecule, the cytotoxicity at 3 µM ([5]; Mus musculus, B16-F10, 96 h, after treatment in the cell growth assay, read-out: cell death (trypan blue exclusion)) was < 1%, the “fold increase” value (protein kinase C [7]; with BIM-I (1 uM)) was 1.07 ± 0.04 fold and the “fold increase” value (protein kinase C [7]; without BIM-I) was 3.02 ± 0.3 fold. For the same molecule, the side-effects (humans) was “significant side-effects including myalgia and hypotension”.
